Compound `CCSC(SCC)=C1CCCC(=C(SCC)SCC)C1=C(C#N)C#N` came in with a melting point of 100 to 102 °C.
Under `O=C1OC2(c3ccc(O)cc3Oc3cc(O)ccc32)c2ccc(N=C=S)cc21` stands 360 °C; under `O=Cc1cc(C#Cc2ccccc2)cs1`, 115 to 118 °C; under `CC1=CC2OC1C(Cl)(Cl)C(=O)C2(Cl)Cl` (stereo not given), 90 to 90.5 °C.
Under `C=C1CCOC2(C(O)C(C)(O)CO)NC(=O)C1(O)NC2=O` (stereo not given) stands 188 °C.
In the case of `Cc1oc(-c2ccccc2)nc1CN` it was 42 to 46 °C; in that of `O=C(O)c1ccc(C(=O)O)c2c(C(=O)O)ccc(C(=O)O)c12`, 320 °C.
In the case of `S=c1oc2ccccc2n1CSCCCS`, the melting point is 188 °C.
Under `Brc1cccc(N2CCCC2)n1` stands 86 to 88 °C; under `Cc1c(O)c(Br)c(Br)c(Br)c1Br`, 209 to 213 °C; under `Cc1cc(C(=O)NCc2ccc(Cl)cc2)no1`, 140 to 143 °C.
Consider `CC(=O)Nc1ccccc1-c1onc(-c2ccccc2)c1-c1ccccc1`, for which the melting point amounted to 190 °C.
The compound `CCCC(O)(CCC)C1(C)CCC(C(=O)O)C(C)(C)O1` (stereo not given) gave a melting point of 111 to 112 °C.
In the case of `COc1cc([N+](=O)[O-])c(Cl)cc1NC(C)=O` it was 185 °C; in that of `O=C(O)C(O)C(Cl)(Cl)Cl` (stereo not given), 125 °C.
In the case of `CCCC(C)S` (stereo not given) it was -169 °C; in that of `FC(F)(F)C(F)(F)C(F)(F)C(F)(F)C(F)(F)C(F)(F)C(F)(F)C(F)(F)C(F)(F)C(F)(F)I`, 66 °C; in that of `CCC(C)OC(=O)C1=C(C)NC(=O)NC1c1ccco1` (stereo not given), 185 °C.
Under `Sc1ccc(S)cc1` stands 97 °C; under `CCOC=C(C#N)S(=O)(=O)c1ccccc1`, 74 °C; under `CC(C)OC(=O)c1cc(C(=O)OC(C)C)cc([N+](=O)[O-])c1`, 65 °C.
For `COC(=O)c1scc(S(C)(=O)=O)c1-n1cccc1`, the melting point was in the range of 124 to 126 °C.
In the case of `O=CC(O)CO` (stereo not given) it was 145 °C.
In the case of `COC(=O)c1sc(N(C)C)c(C#N)c1N` it was 240 to 243 °C; in that of `CC(=O)c1cc(F)c(Cl)cc1Cl`, 35 °C; in that of `O=CC[C@@H](O)[C@H](O)CO`, 91 °C.
Under `O=C(O)COc1ccc2ccccc2c1` stands 156 °C.
In the case of `Cn1cnc(S(=O)(=O)Cl)c1`, the melting point lay in the range of 85 to 90 °C.
In the case of `O=C(C(Br)Br)C(Br)(Br)Br` it was 79.5 °C; in that of `Cc1n[nH]c(S)n1`, 275 to 277 °C.
In the case of `CNCC(O)c1cccc(O)c1` (stereo not given) it was 170 °C; in that of `C[C@H]1C(=O)[C@H]2[C@@H](C[C@H]1C#N)C2(C)C`, 54.5 °C; in that of `CC(C)(C)OC(=O)N[C@@H](CCC(=O)OCc1ccccc1)C(=O)O`, 65 to 68 °C.
For `CSC(SC)=C1CCCC(=C(SC)SC)C1=C(C#N)C#N`, the melting point lay in the range of 155 to 156 °C.
Under `COc1ccc(OC)c(/C=N/n2c(S)nnc2C(F)(F)F)c1` stands 145 °C; under `CC(Oc1c(Cl)cccc1Cl)C1=NCCN1` (stereo not given), 126 °C.
For `O=c1[nH]cccc1[N+](=O)[O-]`, the melting point came out at 232 °C.
Under `CC(=O)NCCCCCCNC(C)=O` stands 128 to 129 °C.
`Cc1ccc(-c2ccc(C=C3C(=O)NC(=O)NC3=O)o2)cc1` showed a melting point of 265 °C.
Regarding `COc1ccc(S(=O)(=O)Cl)cc1OC`, the melting point worked out at 68 °C.
In the case of `Cc1cc(Cl)c(O)c(Cl)c1` it was 39 °C; in that of `C=CC(N)CCC(=O)O` (stereo not given), 209 °C; in that of `O=C1N(c2ccccc2)C(=O)[C@@]2(Cl)C(c3ccccc3)(c3ccccc3)C[C@@]12Cl`, 160 °C.
In the case of `CC1CCC(C(C)C)C(OC(=O)C(c2ccccc2)c2ccccc2)C1` (stereo not given) it was 53 °C.
Under `CC(C)(C)OC(=O)NC(Cc1cccc2ccccc12)C(=O)O` (stereo not given) stands 145 to 148 °C.
The compound `O=C(O)CCCNC(=O)CCCCC(=O)NCCCC(=O)O` displayed a melting point of 145 °C.
In the case of `N#C/C(=C/c1ccco1)c1nc(-c2ccc(Br)cc2)cs1` it was 174 °C.
Under `OCCCc1nc2cc(C(F)(F)F)ccc2[nH]1` stands 134 to 135 °C; under `Sc1nccc(-c2ccco2)n1`, 200 °C.
In the case of `O=[N+]([O-])c1ccc(-c2ccc(-c3ccc([N+](=O)[O-])cc3)cc2)cc1` it was 278 °C; in that of `COC(=O)c1cc(C=O)cn1C`, 100 to 101 °C.
`CNCc1ccc(-c2noc(C)n2)cc1` displayed a melting point of 51 to 53 °C.
Under `O=C1c2ccccc2C(=O)C1(Cl)c1ccccc1` stands 115 to 116 °C.
Under `CCCCCCCOC(C)=O` stands -50.2 °C; under `ClCC=Cc1ccccc1`, -19 °C; under `N#CC(C#N)=C1Sc2nc3ccccc3nc2S1`, 221 °C.
The compound `C/C=C/C1Nn2c(nnc2-c2ccc([N+](=O)[O-])cc2)S1` (stereo not given) showed a melting point of 150 °C.
`CCCCOCN(C(=O)CCl)c1c(CC)cccc1CC` came in with a melting point of -0.55 °C.
With `C1=CC=CC=CC=C1`, the melting point is -4.7 °C.
Under `Cc1c(F)c(F)c(COC(=O)C2C(C=C(Cl)C(F)(F)F)C2(C)C)c(F)c1F` (stereo not given) stands 44.6 °C; under `CC1=NN(c2ccc(S(=O)(=O)O)cc2)C(=O)C1`, 300 °C; under `Cc1ccc(N=CN(C)C=Nc2ccc(C)cc2C)c(C)c1`, 86 °C.
Under `O=[N+]([O-])c1ccc(Oc2ccc(Cl)cc2)nc1` stands 93 to 96 °C; under `CCCCc1c(C)nc(NC(=O)NS(=O)(=O)c2cccs2)nc1O`, 200 to 201 °C.
In the case of `O=S(=O)(Cl)c1ccc(C(F)(F)F)cc1` it was 31 °C; in that of `O=C(O)c1cccc(Cl)n1`, 194 °C; in that of `Clc1cc2c(cc1Cl)Oc1c(Cl)c(Cl)cc(Cl)c1O2`, 206 °C.
Compound `CC(=O)Nc1ccccc1CCc1ccccc1NC(C)=O` came in with a melting point of 250 °C.
In the case of `COc1cccc(Nc2ccccc2)c1`, the melting point amounted to 73 °C.
Compound `Cc1n[nH]c(=S)n(N)c1=O` displayed a melting point of 183 to 184 °C.
Consider `CC12C=CC(=O)C=C1C(F)CC1C2C(O)CC2(C)C1CCC2(O)C(=O)CO` (stereo not given), for which the melting point came out at 210 °C.
Under `COC(=O)C1=C(N)Oc2cc(C)[nH]c(=O)c2C1c1ccccc1` (stereo not given) stands 230 to 232 °C; under `CCC(O)CN` (stereo not given), 3 °C; under `Cn1ncc(C(=O)Cl)c1Cl`, 50 to 52 °C.
Take `CC(C)C(C)C(O)C(O)C(C)C1CCC2C3COC(=O)C4CC(O)C(O)CC4(C)C3CCC12C` (stereo not given): the melting point came out at 255 °C.
In the case of `Cc1ccccc1N1CSc2nnc(-c3cccc([N+](=O)[O-])c3)n2C1` it was 239 to 240 °C.
Under `NC(=S)CCn1cccc(C(F)(F)F)c1=O` stands 154 to 155 °C; under `O=C(O)c1cc(Cl)c(C(=O)O)cc1Cl`, 306 °C.
In the case of `Nc1c(F)cc(Cl)cc1Br` it was 41 to 43 °C.
`[O-][P+](c1ccccc1)(c1ccccc1)C1C=C(c2ccccc2)C=C(c2ccccc2)S1` (stereo not given) gave a melting point of 174 °C.
Under `OCc1cc(-c2ccco2)[nH]n1` stands 159 °C; under `CC(=O)NC1C(Oc2ccc3c(C)cc(=O)oc3c2)OC(CO)C(O)C1O` (stereo not given), 208 to 210 °C; under `O=C(O)CCCCc1ccc(O)cc1`, 118 °C.
In the case of `C=CCNC(=O)NCC=C` it was 91.5 °C.
In the case of `N=C(N)NOCCC(N)C(=O)O` (stereo not given) it was 184 °C; in that of `C[Si](c1ccccc1)(c1ccccc1)[Si](C)(c1ccccc1)c1ccccc1`, 138 to 140 °C; in that of `Cc1ccc(NC(=O)C(C(F)(F)F)C(F)(F)F)cc1`, 196 °C.
Turning to `C=C(C)CCCCCCCCC`, the melting point is -40 °C.
In the case of `Nc1cccc(I)c1` it was 33 °C; in that of `COc1cc(N)c2c(c1N)C(=O)c1ccccc1C2=O`, 242 °C; in that of `CC(=O)c1ccc(C2CC2(Cl)Cl)cc1` (stereo not given), 35 °C.
Consider `CN1CCOc2cc(S(=O)(=O)Cl)ccc21`, for which the melting point was 66 to 68 °C.
Under `c1ccc(C(OC[C@H]2CO2)(c2ccccc2)c2ccccc2)cc1` stands 98 to 101 °C.
In the case of `CC(=O)NC(CC(=O)O)C(=O)O` (stereo not given) it was 138 °C; in that of `CC(=O)Oc1ccccc1/C=C/c1ccccc1`, 56 °C; in that of `FCC(F)(F)C(F)F`, -82 °C.
`COc1ccc(CCC(=O)O)cc1`: the melting point came to 104 °C.
In the case of `O=C(O)CSc1ccncc1` it was 251 to 255 °C.
Under `Nc1ccccc1C(=O)OCc1ccccc1` stands 76 to 78 °C; under `C(=N\CC/N=C/c1ccc2c(c1)OCO2)/c1ccc2c(c1)OCO2`, 178 °C; under `Cc1c(C)c(C)c(S(=O)(=O)Cl)c(C)c1C`, 80 °C.
Under `O=C(C(C(=O)N1CCCCC1)c1ccccc1)N1CCCCC1` stands 144 °C.
In the case of `N#Cc1ccccc1N=C=S`, the melting point is 119 to 120 °C.
`N#CCc1ccc(OCc2c(F)cccc2Cl)cc1` came in with a melting point of 78 to 79 °C.
Under `CN(CCCN1c2ccccc2CCc2ccccc21)CC(=O)c1ccc(Cl)cc1` stands 105 °C; under `NS(=O)(=O)c1ccc(Cl)s1`, 117 °C.
`CC(C)(O)c1ccc(-c2ccccc2)cc1`: the melting point amounted to 91.5 °C.
In the case of `Cc1ccc2cc3ccccc3cc2c1` it was 209 °C; in that of `CNCCOC(=O)C=C1CCC2C(C(O)CC3C(C)(C(=O)OC)CCCC23C)C1C` (stereo not given), 115 °C; in that of `CCOC(=O)c1cnn(-c2ccc(Cl)cc2)c1C(F)(F)F`, 50 to 52 °C.

As a reminder, the melting point is the temperature, or range, at which the solid turns liquid.

Source of the values: a melting point compilation (Tetko et al.).
